From publication PMC3069034, “Structuring Detergents for Extracting and Stabilizing Functional Membrane Proteins” (PLoS ONE, 2011) come the findings set out here.

This test deals with BmrA (Bacillus subtilis, UniProt O06967). Put plainly: intrinsic tryptophan fluorescence quenching of purified protein. The format is binding. The text has this: intrinsic tryptophan fluorescence quenching of purified protein on BmrA | the binding of daunorubicin was similar for both detergents.
BmrA, sequence (O06967 whole entry): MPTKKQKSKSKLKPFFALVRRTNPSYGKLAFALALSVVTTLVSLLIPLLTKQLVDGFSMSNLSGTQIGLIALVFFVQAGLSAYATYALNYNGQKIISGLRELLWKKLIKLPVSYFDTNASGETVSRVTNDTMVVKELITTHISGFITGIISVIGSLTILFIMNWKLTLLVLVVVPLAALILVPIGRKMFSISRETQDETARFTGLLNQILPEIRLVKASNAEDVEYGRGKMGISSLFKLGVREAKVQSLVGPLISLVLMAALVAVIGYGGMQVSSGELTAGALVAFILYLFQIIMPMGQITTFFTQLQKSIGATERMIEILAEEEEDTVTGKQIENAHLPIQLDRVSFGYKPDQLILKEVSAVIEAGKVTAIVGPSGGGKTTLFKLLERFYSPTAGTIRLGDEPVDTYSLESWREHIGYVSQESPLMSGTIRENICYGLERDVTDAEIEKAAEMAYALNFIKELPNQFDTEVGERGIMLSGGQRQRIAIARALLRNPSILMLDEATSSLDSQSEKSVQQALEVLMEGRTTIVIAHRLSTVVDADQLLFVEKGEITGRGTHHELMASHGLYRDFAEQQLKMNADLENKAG

As usually defined, the Kd is the constant that tells how readily two partners part at equilibrium. A low value points to higher affinity. For `COc1cccc2c1C(=O)c1c(O)c3c(c(O)c1C2=O)C[C@@](O)(C(C)=O)C[C@@H]3O[C@H]1C[C@H](N)[C@H](O)[C@H](C)O1` [daunorubicin], the Kd amounted to 12.4 ± 0.8 µM.
